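Five compound concentrations were applied to cells in 96-well plates for 48 hours; endpoints were derived by simple linear interpolation of the resulting dose-response curve. Abbreviation: GI50, concentration required for 50% inhibition of growth.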 Active and inactive are the calls of the source. Cut-off read from the data, not from the text of the source: active = GI50 up to about 1.1 µM and inactive = higher.
What was measured:
Assay in all cases: NCI-60 cell line screen, 48 h
SF-295 = tested on: SF-295
ACHN = tested on: ACHN
CAKI-1 = tested on: CAKI-1
CCRF-CEM = tested on: CCRF-CEM
EKVX = tested on: EKVX
TK-10 = tested on: TK-10
UACC-257 = tested on: UACC-257
MOLT-4 = tested on: MOLT-4
SNB-19 = tested on: SNB-19
SK-MEL-28 = tested on: SK-MEL-28
LOX IMVI = tested on: LOX IMVI
HT-29 = tested on: HT-29
PC-3 = tested on: PC-3
U-251 = tested on: U-251
M14 = tested on: M14
HCT-15 = tested on: HCT-15
T47D = tested on: T47D
UO-31 = tested on: UO-31

SMILES	GI50 (SF-295)	GI50 (ACHN)	GI50 (CAKI-1)	GI50 (CCRF-CEM)	GI50 (EKVX)	GI50 (TK-10)	GI50 (UACC-257)	GI50 (MOLT-4)	GI50 (SNB-19)	GI50 (SK-MEL-28)	GI50 (LOX IMVI)	GI50 (HT-29)	GI50 (PC-3)	GI50 (U-251)	GI50 (M14)	GI50 (HCT-15) [µM]	GI50 (T47D)	GI50 (UO-31)
CCOC(=O)c1c(SC(=O)c2ccc(Cl)cc2)n(-c2ccccc2)c(=S)n(-c2ccccc2)c1=O	> 100 µM (inactive)	> 100 µM (inactive)	> 100 µM (inactive)	> 100 µM (inactive)	> 100 µM (inactive)	> 100 µM (inactive)	> 100 µM (inactive)	> 100 µM (inactive)	> 100 µM (inactive)	> 100 µM (inactive)	> 100 µM (inactive)	> 100 µM (inactive)	> 100 µM (inactive)	> 100 µM (inactive)	> 100 µM (inactive)	> 100	> 100 µM (inactive)	–
O=[N+]([O-])/C(Cl)=C(/C(Cl)=C(Cl)Cl)N1CCOCC1	11.5 µM (inactive)	6.01 µM (inactive)	4.34 µM (inactive)	1.8 µM (inactive)	6.53 µM (inactive)	3.49 µM (inactive)	2.99 µM (inactive)	2.58 µM (inactive)	17.6 µM (inactive)	11 µM (inactive)	3.66 µM (inactive)	3.4 µM (inactive)	6.01 µM (inactive)	10.7 µM (inactive)	2.36 µM (inactive)	1.56	2.94 µM (inactive)	6.1 µM (inactive)
O=C(O)CSC1=NC(=O)C2(NN1)c1ccccc1-c1ccccc12	> 10 µM (inactive)	> 10 µM (inactive)	> 10 µM (inactive)	> 10 µM (inactive)	> 10 µM (inactive)	> 10 µM (inactive)	> 10 µM (inactive)	> 10 µM (inactive)	> 10 µM (inactive)	> 10 µM (inactive)	> 10 µM (inactive)	> 10 µM (inactive)	> 10 µM (inactive)	–	> 10 µM (inactive)	> 10	> 10 µM (inactive)	> 10 µM (inactive)
CC(=O)OCCn1c(Cc2ccc(Cl)cc2)nn(C(C)=O)c1=O	> 100 µM (inactive)	> 100 µM (inactive)	> 100 µM (inactive)	> 100 µM (inactive)	> 100 µM (inactive)	> 100 µM (inactive)	> 100 µM (inactive)	> 100 µM (inactive)	> 100 µM (inactive)	> 100 µM (inactive)	> 100 µM (inactive)	> 100 µM (inactive)	> 100 µM (inactive)	> 100 µM (inactive)	> 100 µM (inactive)	> 100	> 100 µM (inactive)	> 100 µM (inactive)
C=C1CN(Cc2ccccc2)[C@@H]2CCCCC[C@H](C#N)[C@H]12	> 21.2 µM (inactive)	> 100 µM (inactive)	> 100 µM (inactive)	24.9 µM (inactive)	> 100 µM (inactive)	> 100 µM (inactive)	> 100 µM (inactive)	24.3 µM (inactive)	> 100 µM (inactive)	> 100 µM (inactive)	95.9 µM (inactive)	> 67.5 µM (inactive)	> 74.1 µM (inactive)	> 94 µM (inactive)	> 100 µM (inactive)	> 100	> 100 µM (inactive)	> 63.4 µM (inactive)
O=C(N/N=C/c1ccc(Cl)cc1)c1cc(I)cc(I)c1O	> 100 µM (inactive)	> 100 µM (inactive)	> 100 µM (inactive)	> 100 µM (inactive)	> 100 µM (inactive)	> 100 µM (inactive)	> 100 µM (inactive)	> 100 µM (inactive)	> 100 µM (inactive)	> 100 µM (inactive)	> 100 µM (inactive)	> 100 µM (inactive)	> 100 µM (inactive)	> 100 µM (inactive)	> 100 µM (inactive)	> 100	> 100 µM (inactive)	> 100 µM (inactive)
COC(=O)c1cc(C)ccc1CC(Cc1ccc(C)cc1)C(=O)OC (centres undefined)	27.3 µM (inactive)	> 100 µM (inactive)	36.6 µM (inactive)	62.8 µM (inactive)	11.1 µM (inactive)	> 100 µM (inactive)	9.89 µM (inactive)	5.01 µM (inactive)	> 100 µM (inactive)	67.1 µM (inactive)	19.1 µM (inactive)	5.58 µM (inactive)	37.8 µM (inactive)	42.1 µM (inactive)	20.9 µM (inactive)	10.9	30.8 µM (inactive)	17.1 µM (inactive)
Nc1ccccc1CCN1CCN(CCCc2ccccc2)CC1	45.4 µM (inactive)	> 100 µM (inactive)	57.3 µM (inactive)	46.1 µM (inactive)	> 100 µM (inactive)	91.2 µM (inactive)	32.5 µM (inactive)	53.3 µM (inactive)	> 100 µM (inactive)	97.7 µM (inactive)	34.4 µM (inactive)	21.4 µM (inactive)	95.9 µM (inactive)	> 100 µM (inactive)	17.3 µM (inactive)	33.2	20.8 µM (inactive)	27.3 µM (inactive)
Cc1nc(-c2ccc([N+](=O)[O-])cc2)cn2c1nc1ccccc12	76.9 µM (inactive)	–	> 100 µM (inactive)	> 100 µM (inactive)	> 100 µM (inactive)	97.5 µM (inactive)	> 100 µM (inactive)	> 100 µM (inactive)	65.8 µM (inactive)	> 100 µM (inactive)	> 100 µM (inactive)	> 100 µM (inactive)	> 100 µM (inactive)	40.2 µM (inactive)	70.3 µM (inactive)	> 100	8.81 µM (inactive)	> 100 µM (inactive)
COC1(OC)N=C(N)C2(C#N)C(c3ccccc3)NC3=C(CCC3)C12C#N (centres undefined)	> 100 µM (inactive)	> 100 µM (inactive)	> 100 µM (inactive)	> 100 µM (inactive)	> 100 µM (inactive)	> 100 µM (inactive)	> 100 µM (inactive)	> 100 µM (inactive)	> 100 µM (inactive)	> 100 µM (inactive)	> 100 µM (inactive)	> 100 µM (inactive)	> 100 µM (inactive)	> 100 µM (inactive)	> 100 µM (inactive)	> 100	> 100 µM (inactive)	> 100 µM (inactive)
CC1=C2NCN(C)N=C2C(C#N)(C#N)C1(C#N)C#N	> 100 µM (inactive)	17.9 µM (inactive)	5.97 µM (inactive)	2.22 µM (inactive)	26 µM (inactive)	16.4 µM (inactive)	17 µM (inactive)	2.56 µM (inactive)	36.9 µM (inactive)	21.6 µM (inactive)	20.8 µM (inactive)	21.4 µM (inactive)	26.9 µM (inactive)	28.9 µM (inactive)	23.8 µM (inactive)	21	21.7 µM (inactive)	18.4 µM (inactive)
CC(C)CCOC(=O)NC(Nc1ccc(F)cc1)(C(F)(F)F)C(F)(F)F	> 100 µM (inactive)	1.66 µM (inactive)	19.5 µM (inactive)	19.5 µM (inactive)	60.7 µM (inactive)	29.7 µM (inactive)	> 100 µM (inactive)	19.1 µM (inactive)	62.2 µM (inactive)	> 100 µM (inactive)	40.9 µM (inactive)	39.8 µM (inactive)	28.1 µM (inactive)	27.3 µM (inactive)	6.62 µM (inactive)	1.68	6.22 µM (inactive)	10.7 µM (inactive)
O=C(NC(CO)CO)c1ccc2cc(C(=O)N3CC(CCl)c4ccc([N+](=O)[O-])cc43)[nH]c2c1 (centres undefined)	> 100 µM (inactive)	> 100 µM (inactive)	> 100 µM (inactive)	> 100 µM (inactive)	> 100 µM (inactive)	> 100 µM (inactive)	> 100 µM (inactive)	> 100 µM (inactive)	> 100 µM (inactive)	> 100 µM (inactive)	> 100 µM (inactive)	> 100 µM (inactive)	> 100 µM (inactive)	> 100 µM (inactive)	> 100 µM (inactive)	> 100	0.619 µM (active)	> 100 µM (inactive)
CCCC(=O)NC(Nc1cc(C)ccn1)(C(=O)OCC)C(F)(F)F (centres undefined)	> 100 µM (inactive)	> 100 µM (inactive)	> 100 µM (inactive)	> 100 µM (inactive)	> 100 µM (inactive)	> 100 µM (inactive)	> 100 µM (inactive)	> 100 µM (inactive)	> 100 µM (inactive)	> 100 µM (inactive)	> 100 µM (inactive)	> 100 µM (inactive)	> 100 µM (inactive)	> 100 µM (inactive)	> 100 µM (inactive)	> 100	> 100 µM (inactive)	> 100 µM (inactive)
COc1ccc(OC)c2c1C1CCC(=O)N1CN2C(C)=O (centres undefined)	> 100 µM (inactive)	> 100 µM (inactive)	> 100 µM (inactive)	> 100 µM (inactive)	> 100 µM (inactive)	> 100 µM (inactive)	> 100 µM (inactive)	> 100 µM (inactive)	> 100 µM (inactive)	> 100 µM (inactive)	> 100 µM (inactive)	> 100 µM (inactive)	> 100 µM (inactive)	> 100 µM (inactive)	> 100 µM (inactive)	> 100	> 100 µM (inactive)	> 100 µM (inactive)
C=C[C@H]1CN2CCc3c([nH]c4c([C@H]5CCCN5C)c(O)ccc34)[C@@H]2C[C@@H]1C[C@H]1c2[nH]c3ccccc3c2CCN1C [STRYCHNOPENTAMINE]	1.73 µM (inactive)	1.78 µM (inactive)	1.72 µM (inactive)	0.719 µM (active)	1.75 µM (inactive)	1.83 µM (inactive)	1.83 µM (inactive)	–	1.95 µM (inactive)	1.76 µM (inactive)	1.15 µM (inactive)	1.3 µM (inactive)	1.57 µM (inactive)	1.43 µM (inactive)	1.47 µM (inactive)	0.899	1.8 µM (inactive)	1.71 µM (inactive)
